Active and inactive are the calls of the source. The rule behind the calls is not given here.
What was measured:
[1] = target: Heat shock protein HSP 90-alpha (Homo sapiens, UniProt P07900); test: Inhibition of FITC-geldanamycin binding to HSP90alpha (unknown origin) after 3 hrs by fluorescence polarization assay
[2] = test system: HL-60; test: Antiproliferative activity against human HL60 cells after 48 hrs by sulforhodamine B assay; assay type: functional
[3] = test system: A549; test: Antiproliferative activity against human A549 cells after 48 hrs by sulforhodamine B assay; assay type: functional
[4] = test system: NCI-H1975; test: Antiproliferative activity against human NCI-H1975 cells after 48 hrs by sulforhodamine B assay; assay type: functional; details: NCI-H1975, 48 h
[5] = test system: HCT-116; test: Antiproliferative activity against human HCT116 cells after 48 hrs by sulforhodamine B assay; assay type: functional; details: HCT-116, 48 h
[6] = target: T1, Heat shock protein HSP90 (Homo sapiens) (UniProt P07900+P08238); test: Inhibition of HSP90 in human HL60 cells assessed as downregulation of phosphorylated Akt expression at 1 uM by Western blot analysis; assay type: cell-based; details: TDE = time-dependent effect
[7] = target: T1, Heat shock protein HSP90 (Homo sapiens); test: Inhibition of HSP90 in human HL60 cells assessed as downregulation of phosphorylated Akt expression after 24 hrs by Western blot analysis; assay type: cell-based
[8] = target: T1, Heat shock protein HSP90 (Homo sapiens); test: Inhibition of HSP90 in human HL60 cells assessed as downregulation of phosphorylated STAT3 expression after 24 hrs by Western blot analysis; assay type: cell-based
[9] = target: T1, Heat shock protein HSP90 (Homo sapiens); test: Inhibition of HSP90 in human HL60 cells assessed as induction of HSP70 expression at 1 uM by Western blot analysis; assay type: cell-based; details: TDE = time-dependent effect
[10] = target: T1, Heat shock protein HSP90 (Homo sapiens); test: Inhibition of HSP90 in human HL60 cells assessed as downregulation of phosphorylated STAT3 expression at 1 uM by Western blot analysis; assay type: cell-based; details: TDE = time-dependent effect
[11] = target: T1, Heat shock protein HSP90 (Homo sapiens); test: Inhibition of HSP90 in human HL60 cells assessed as induction of HSP70 expression after 24 hrs by Western blot analysis; assay type: cell-based
[12] = target: Histone deacetylase; assay type: protein assay, Homo sapiens
[13] = target: T2, Histone deacetylase (Homo sapiens) (UniProt Q13547+O15379+Q9UBN7+Q92769+Q9UQL6+Q8WUI4+Q9BY41+Q96DB2+P56524+Q9UKV0+Q969S8); test: Inhibition of HDAC in human HL60 cells assessed as upregulation of acetyl-alpha-tubulin levels at 1 uM after 24 hrs by Western blot analysis; assay type: cell-based
[14] = target: T2, Histone deacetylase (Homo sapiens); test: Inhibition of HDAC in human HL60 cells assessed as upregulation of acetylated histone H3 levels at 1 uM after 24 hrs by Western blot analysis; assay type: cell-based

SMILES	IC50 [1]	GI50 [2]	GI50 [3]	GI50 [4]	GI50 [5]	inhibition [6]	inhibition [7]	inhibition [8]	inhibition [9]	inhibition [10]	inhibition [11]	IC50 [12]	inhibition [13]	GI50 ([2]; Homo sapiens, HL-60, 48 h)	GI50 ([3]; Homo sapiens, A549, 48 h)	inhibition [14]
O=C(CCCCCCC(=O)Nc1ccccc1)NO [VORINOSTAT]	> 1000 nM	1740 nM	1020 nM	1410 nM	150 nM											
CC(C)c1cc(C(=O)N2CCc3cc(NC(=O)CCCCCCC(=O)NO)ccc32)c(O)cc1O						Tde	Dose-dependent effect	Dose-dependent effect	Tde	Tde	Dose-dependent effect					
COc1c(C)cnc(Cn2cnc3c(Cl)nc(N)nc32)c1C [BIIB021]				380 nM	150 nM							> 1000 nM	Active	590 nM	330 nM	Active

— ChEMBL document CHEMBL4229357, “1-Aroylindoline-hydroxamic acids as anticancer agents, inhibitors of HSP90 and HDAC” (Eur J Med Chem, 2018)
